Assay results: patent publication US20070218023A1, “Uses of melatonin in skin” (priority 2006, published 2007)
Entries after “also recorded” stand apart in the source; their conditions may differ.

How the values were obtained:
[1] = test system: HaCaT keratinocytes; assay: Kinetics of melatonin metabolism in untreated keratinocytes (intracellular levels); assay type: in vitro ADME, human; conditions: not preincubated with melatonin, no UV; for intracellular level in untreated keratinocytes after 24 hrs: cultivation for 24 hrs
Method: (§1) Parallel control dishes were incubated with PBS without melatonin.
(§2) Aliquots ([…]) of samples from the cell suspension and cell-free experiments were separated on an LC-MS QP8000a (Shimadzu, Japan) equipped with diode array and single quadrupole mass-spectrometric detectors. The separation system consisted of a Restec Allure C18 reverse-phase column (150×4.6 mm; 5 μm particle size; and 60 A pore size) with mobile phase consisting of 25% acetonitrile and 0.1% acetic acid. Elution was carried out isocratically at flow rate of 0.75 ml/min and temperature of 40° C. The eluent was routed to the mass-spectrometric electrospray interface (ESI) set in positive mode and using nitrogen as the nebulizing gas. Mass-spectrometry parameters were as follows: nebulizer gas flow rate, 4.5 l/min; electrospray voltage, 4.5 kV; and curved desolvation line (CDL) heater temperature, 250° C. The selected ion monitoring (SIM) mode was used to detect ions with m/z=249 (monohydroxymelatonin); m/z=265 (dihydroxymelatonin and AFMK); m/z=237 (AMK); and m/z=233 (melatonin). System control and data acquisition were performed with the LC-MS workstation Class-8000 software (Shimadzu, Japan).

[2] = test system: HaCaT keratinocytes; assay: Melatonin and metabolites in supernatants and cell lysates of UV-irradiated HaCaT keratinocytes (HPLC, LC-MS); assay type: in vitro ADME, human
Method: as §1
(§3) Internal standards for HPLC were dissolved in absolute ethanol. […] AFMK was produced as described previously (48).
(§4) Irradiation experiments were performed with a Biorad UV transluminator 2000 (Bio-RAD Laboratories, Hercules, Calif.), calibrated as described previously (37). Briefly, a scanning double monochromator spectroradiometer (Model OL 754, Optronic Laboratories, Orlando, Fla.) was used to scan emission of wavelengths from 250 to 800 nm at 1 nm increments. The spectroradiometer had been calibrated with an NIST traceable tungsten-halogen spectral irradiance standard (Model 75-10E, Optronic Laboratories, Orlando, Fla.) with a precision current source (Model 65, Optronic Laboratories, Orlando, Fla.). An additional calibration module (Model 752-150, Optronic Laboratories, Orlando, Fla.) measured both photometric gain and wavelength accuracy. Wavelength calibration and gain were established or verified before each experimental use. The UV source emission (shown in FIG. 1) consisted primarily of UVB light (wavelength 280-320 nm; 60%), with minor output in the UVA (320-400 nm) and UVC (120-280 nm) range (˜30% and ˜10%, respectively). Melatonin photoproducts generation was performed after irradiation at the UV doses of 25, 50, 75 or 100 mJ/cm^2, as indicated in the figures.
as §2

[3] = UVR irradiation of melatonin solution in a cell-free system (HPLC, LC-MS); assay type: physicochemical; conditions: melatonin in PBS, UV-doses of 25, 50 and 100 mJ/cm^2
Method: as §1, §3
as §4, with “Melatonin photoproducts generation was performed after irradiation at the UV doses of 25, 50, 75 or 100 mJ/cm^2, as indicated in the figures.” left out
Peak areas increased linearly with UV-doses (FIG. 2). […] Product identity was determined by comparison with known standards of melatonin metabolites. […]

[4] = test system: HaCaT keratinocytes; assay: Morphology analysis of keratinocytes after UV irradiation; assay type: cell-based, human; conditions: melatonin 10^−3 M, 50 mJ/cm^2, 24 hours after irradiation
Method: Cell media from overnight incubation was removed and replaced with fresh media containing melatonin at the concentration of 10^−3 M, the maximum effective concentration identified in previous studies (45, 46). […] Irradiation of the Petri dishes was performed with UVR from below, and after irradiation PBS was replaced by fresh culture media for 24 or 48 hrs. Paraely, cells were incubated with or without melatonin, but not subjected to irradiation to exclude effects of melatonin alone.
Digital pictures from six to ten randomly chosen fields per Petri dish for each experimental condition were acquired at different time points after UV exposure (0, 24 and 48 hrs) with a NIKON Eclipse TE300 microscope (Melville, N.Y.). At 24 and 48 hrs after UV exposure, pictures of detached cells were first taken, then detached cells were removed and another set of pictures was acquired to assess the degree of confluency of cells which were still attached to the bottom of the culture dish. Pictures were recorded and analyzed with MetaVue software. Then, keratinocytes were harvested from Petri dishes by trypsinization, washed three times with ice-cold PBS and frozen in −80° C. until further processing.

[5] = test system: HaCaT keratinocytes; assay: Mitochondrial membrane potential (ΔΨ) using JC-1, confocal microscopy; assay type: cell-based, human; conditions: for mitochondrial membrane potential, melatonin alone: melatonin 10−4 M, without UV-exposure
Method: Mitochondrial inner membrane potential (ΔΨ) in immortalized HaCaT keratinocytes was measured by using confocal microscopy with 5,5′,6,6′tetrachloro-1,1′,3,3′-tetraethylbenzimidazol-carbocyanine iodide (JC-1) (Molecular Probes, Carlsbad, Calif.) (66). JC-1 selectively enters mitochondria and aggregates when the membrane potential values exceed 80-100 mV, causing a shift in fluorescence from 530 nm (green) to 590 nm (red). For experiments, human HaCaT keratinocytes were seeded in Lab-Tek II 8-well chambered coverglass (Nalge Nunc, Inc., Naperville, Ill.) and grown until 90-100% of confluence. Culture media were removed and cells washed with PBS and then incubated for 30 or 120 min with melatonin at […]. Stock solution of melatonin was dissolved in DMEM and added to the culture media. After incubation, cells were washed twice with PBS and subjected to irradiation with UVB at the dose of 50 mJ/cm^2 or incubated with serum free medium containing 1 mM H2O2 for 1 h. After irradiation cells were incubated in DMEM containing 5% FBS and supplemented with JC-1 (2.5 μg/ml) for 30 min at 37° C. […] Images were acquired from three to six randomly chosen fields for each experimental condition showing nuclear cross-section. Green and red channels were merged and ratio of red to green channel was shown in blue.
Bands of immunoblots were evaluated by measurement of density with Scion Image analysis software (NIH). Density values from two or three experiments were taken for calculation of mean values and standard deviation. For statistical analysis of mitochondrial membrane potential, images showing nuclear cross-section were acquired from three to six randomly chosen fields -or each experimental condition. Ration of red/green emission was calculated using ImageJ software (NIH, Bethesda, […].) and differences were analysed with Student's t-test and were considered significant when p-value was <0.05.

[6] = test system: HaCaT keratinocytes; conditions: human
Source text: HaCaT keratinocytes were cultivated in Dulbecco's Modified Eagle Medium (DMEM) supplemented with glucose, L-glutamine, pyridoxine hydrochloride (Gibco, Invitrogen Life Technologies Carlsbad, Calif.), 10% fetal bovine serum (Mediatech Inc., Herndon, Va.) and 1% penicillin/streptomycin/amphotericin antibiotic solution (Sigma Chemical Co., St. Louis, Mo.). Cells were trypsinized from culture flasks and seeded in 10 cm petri dishes (Corning Inc., Corning, N.Y.) at a density of 10^6 cells/dish and incubated overnight. The next day, after confluence of 80-90% was reached, cells were washed once with PBS to remove remnants of media, and incubation with melatonin in PBS was performed for 30 min. Parallel control dishes were incubated with PBS without melatonin. After incubation the Petri dishes were irradiated from below with UVR. […]
Cell extracts were briefly sonicated in 50 μl absolute ethanol in a Branson 5200 waterbath at ambient temperature (Branson Ultrasonics Corporation, Danbury, Conn.). […] Column eluate was monitored by Model 2487 UV detector (275 nm) and Model 991 photodiode array detectors and the data stored electronically for subsequent interpretation.

[7] = test system: HaCaT keratinocytes; conditions: [3H]-labeled melatonin tracer only; cited from earlier work

Compound: COc1ccc2[nH]c(O)c(CCNC(C)=O)c2c1 [2-hydroxymelatonin]
- intracellular level in untreated keratinocytes, initial (basal) [1]: 7.8 pmoles/1000 cells
- intracellular level in untreated keratinocytes after 24 hrs [1]: 20.4 pmoles/1000 cells

Compound: COc1ccc2[nH]cc(CCNC(C)=O)c2c1O [4-hydroxymelatonin]
- intracellular detection ([2]; basal conditions and after UVR exposure): not detected intracellularly

Compound: COc1cc2c(CCNC(C)=O)c[nH]c2cc1O [6-hydroxymelatonin]
- intracellular level in untreated keratinocytes, initial (basal) [1]: 53.4 pmoles/1000 cells
- intracellular level in untreated keratinocytes after 24 hrs [1]: 16.8 pmoles/1000 cells

Compound: COc1ccc(NC=O)c(C(=O)CCNC(C)=O)c1 [AFMK, N^1-acetyl-N^2-formyl-5-methoxykynuramine]
- relative HPLC peak size of photoproduct [3]: largest peak
- time of highest level in supernatants post UV exposure ([2]; HaCaT preincubated with 10−3 M melatonin, UVR): 40 min
- AFMK level in supernatants, irradiated vs nonirradiated ([2]; cells not preincubated with melatonin): ~13 fold
- AFMK level in supernatants, irradiated vs non-irradiated ([2]; melatonin preincubation, 50 mJ/cm^2): ~100 fold
- AFMK level in cell lysates, irradiated vs nonirradiated ([2]; melatonin preincubation, UVR): approximately 3.5 fold
- AFMK level in native keratinocytes (lysates), UV-stimulated increase ([2]; not preincubated with melatonin): 1.9 fold
- intracellular level in untreated keratinocytes, initial (basal) [1]: 17.4 pmoles/1000 cells
- intracellular level in untreated keratinocytes after 24 hrs [1]: 33.6 pmoles/1000 cells

Compound: COc1ccc(N)c(C(=O)CCNC(C)=O)c1 [AMK, N^1-acetyl-5-methoxykynuramine]
- detection of AMK after UVR exposure [2]: could not be detected

Compound: COc1ccc2[nH]cc(CCNC(C)=O)c2c1 [melatonin]
- photoproducts generated by UV irradiation of melatonin solution [3]: generated four compounds
- melatonin level in supernatants after UV exposure, % of nonirradiated melatonin solution ([2]; human): 99.7%
- intracellular level in untreated keratinocytes, initial (basal) [1]: 146.0 pmoles/1000 cells
- intracellular level in untreated keratinocytes after 24 hrs [1]: 65.0 pmoles/1000 cells
- keratinocyte confluency and empty spaces after UV irradiation [4]: confluency was higher compared to non-treated control and no empty spaces were seen
- UV-induced mitochondrial membrane potential reduction, red/green fluorescence ratio ([5]; melatonin 10^−3 to 10^−6 M for 30 or 120 min, UVB 50 mJ/cm^2): attenuated by melatonin in a dose dependent manner; also recorded: prevented membrane potential reduction
- H2O2-induced reduction of mitochondrial membrane potential ([5]; melatonin 10^−4 M, H2O2 1 mM, 60 minutes): significantly counteracted
- mitochondrial membrane potential, melatonin alone [5]: no change of mitochondrial membrane potential
- mitochondrial membrane potential, melatonin alone ([5]; listed as Melatonin): did not influence mitochondrial membrane potential
- mitochondrial membrane potential after UVB (JC-1 images) ([5]; preincubation with melatonin 10^−4 M, UVB 50 mJ/cm^2): preserved mitochondrial membrane potential
- intracellular melatonin concentration [6]: approximately 10−6 M
- uptake of melatonin into the cell, ratio of intra- to extracellular melatonin (% of applied levels) [6]: 0.125%
- melatonin uptake in HaCaT keratinocytes (Nickel and Wohlrab) [7]: 0.097%
